Measurements reported in paper PMC3229842 (Chemmedchem, 2011).
Where two headings read alike, the source gives them in different places.

Legend:
[1] = system: T. brucei (S427 single marker line); test: microbe, parasite or virus in culture; assay type: cell-based, Trypanosoma brucei; conditions: for EC50: Trypanosoma brucei
[2] = system: MRC-5 cell line (normal diploid human fibroblasts); test: cells; assay type: cell-based; conditions: MRC5, read-out: pEC50 MRC-5 (converted)
T. brucei = conditions: cited from earlier work

N=C(N)c1ccc(OCCCCCOc2ccc(C(=N)N)cc2)cc1 [Pentamidine]
EC50 ([1]; read-out: pEC50 T. brucei (converted)): 0.00355 µM

COc1cccc2c1C(=O)c1c(O)c3c(c(O)c1C2=O)C[C@@](O)(C(=O)CO)C[C@@H]3O[C@H]1C[C@H](N)[C@H](O)[C@H](C)O1 [doxorubicin]
EC50 [2]: 0.0708 µM

O=C(Cc1ccc(Cl)c(Cl)c1)Nc1ccccc1N1CCCC1 [Compound 44, 2-(3,4-Dichlorophenyl)-N-[2-(pyrrolidin-1-yl)phenyl]acetamide]
fold loss of potency relative to 38 [1]: > 66 fold | EC50 ([1]; 72 h, read-out: EC50 T. b. brucei): 17.7 µM

NCCCC(N)(C(=O)O)C(F)F (centres unmarked) [eflornithine]
Hill slope (s) (T. brucei): 4.0
